These results are taken from patent US20250127761A1, “Telmisartan Nanosuspension for Therapy of Respiratory Infections and Methods of Making and Using Same” (Soligenix, Inc., priority 2022, published 2025).

In one data set the test system is ANG II type 1 receptor. Put plainly: Inhibition of ANG II-mediated intracellular calcium spike in lung smooth muscle cells. The format is cell-based. (Calcium flux is commonly read through the fluorescence of an indicator in the cells.)
For data set [1] the following is noted: cynomolgus monkey, in vivo.

The structures appear in SMILES notation.

As to `CCCc1nc2c(C)cc(-c3nc4ccccc4n3C)cc2n1Cc1ccc(-c2ccccc2C(=O)O)cc1` [FD-TEL, telmisartan], the “ANG II-mediated transient [Ca2+]i spike” value in the data set on ANG II type 1 receptor was “equally and entirely abrogated”. The creatine kinase entry in data set [1] was “significant increase”.
